Experimental data published in ChEMBL document CHEMBL1671801, “Melampomagnolide B: a new antileukemic sesquiterpene” (Bioorg Med Chem, 2011).
Calls of active or inactive are those of the source.

Columns and labels:
[1] = target: T1, Inhibitor of nuclear factor kappa-B kinase subunit beta (Homo sapiens) (UniProt O14920); experiment: Binding affinity to IKK-beta activity in human AML cells after 4 hrs streptavidin beads pull-down assay; type: cell-based
T1 sequence (whole entry): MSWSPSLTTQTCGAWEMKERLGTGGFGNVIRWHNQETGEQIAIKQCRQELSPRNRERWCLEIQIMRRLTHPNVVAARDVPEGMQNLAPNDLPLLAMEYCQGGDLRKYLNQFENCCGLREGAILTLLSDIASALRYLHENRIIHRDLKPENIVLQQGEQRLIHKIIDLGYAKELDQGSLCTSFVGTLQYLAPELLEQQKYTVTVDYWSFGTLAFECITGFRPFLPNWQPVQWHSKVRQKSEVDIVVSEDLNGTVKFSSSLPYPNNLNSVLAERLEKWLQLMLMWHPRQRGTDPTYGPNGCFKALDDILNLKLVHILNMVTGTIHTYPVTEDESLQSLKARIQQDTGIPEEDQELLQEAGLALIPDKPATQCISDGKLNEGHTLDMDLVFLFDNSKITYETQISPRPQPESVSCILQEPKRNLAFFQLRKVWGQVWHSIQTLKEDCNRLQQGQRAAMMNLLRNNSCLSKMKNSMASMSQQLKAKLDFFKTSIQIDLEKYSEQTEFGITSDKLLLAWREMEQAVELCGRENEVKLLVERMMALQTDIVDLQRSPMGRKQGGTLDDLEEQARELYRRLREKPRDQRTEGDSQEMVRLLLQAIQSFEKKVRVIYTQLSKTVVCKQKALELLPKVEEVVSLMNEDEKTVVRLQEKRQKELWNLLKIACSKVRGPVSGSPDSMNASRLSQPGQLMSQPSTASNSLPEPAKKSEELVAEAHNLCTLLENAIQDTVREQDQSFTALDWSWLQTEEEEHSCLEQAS

AML [2] = experiment: Inhibition of NF-kappaB activity in human AML cells assessed as phosphorylation of NF-kappaB p65 subunit at Ser-536 at 15 uM by immunoblotting; type: cell-based
AML [3] = experiment: Cytotoxicity against human AML cells at 20 to 30 uM after 24 hrs using Annexin-V and 7-AAD staining by flow cytometry; type: functional, cell-based
AML [4] = experiment: Binding affinity to NF-kappaB p65 activity in human AML cells after 4 hrs streptavidin beads pull-down assay; type: cell-based
AML [5] = experiment: Inhibition of NF-kappaB activity in human AML cells assessed as phosphorylation of NF-kappaB p65 subunit at Ser-536 at 7.5 uM by immunoblotting; type: cell-based
AML [6] = experiment: Cytotoxicity against human AML cells at 7.5 uM after 24 hrs using Annexin-V and 7-AAD staining by flow cytometry; type: functional, cell-based

Measured: Activity

C=C1C(=O)O[C@@H]2[C@H]3O[C@]3(C)CC/C=C(\COC(=O)CCCCCCCCCCCNC(=O)CCCC[C@@H]3SC[C@@H]4NC(=O)N[C@@H]43)CC[C@@H]12
active: [1] | AML [2] | AML [3] | AML [4]

C=C1C(=O)O[C@@H]2[C@H]3O[C@]3(C)CC/C=C(\CO)CC[C@@H]12
active: AML [5] | AML [6]
